Columns and labels:
murine CCR2 = biological target: T1, murine CCR2 (Mus musculus, UniProt P51683); experiment: Functional β-arrestin recruiting test with human MCP-1 (B-2a); assay type: cell-based; details: U2OS β-arrestin cell line transfected with murine CCR2; agonist human MCP-1 at EC50 (about 3 nM); in some cases means of several determinations
T1 construct: host or cells: U2OS β-arrestin cell line
Method: The antagonistic action of test substances on CCR2 was determined in a β-arrestin test. The PathHunter β-arrestin GPCR test system (DiscoveRx Corporation, Ltd.) is a cell-based functional method for detecting binding of β-arrestin to an activated receptor. The molecular basis is a […] complementation measured by the enzymatic conversion of a chemiluminescent substrate. The test cell used was a U2OS β-arrestin cell line transfected with murine CCR2 (93-0543C3, DiscoveRx Corporation, Ltd.).
The test substances were dissolved in dimethyl sulphoxide (DMSO) at a concentration of 10 mM and serially diluted with DMSO in steps of 1:3.16 for a 10-point dose/activity analysis. According to the desired test concentrations, the substances were pre-diluted in Tyrode with 2 mM CaCl2 and 0.05% BSA.
The cells, cultivated in MEM Eagle (supplemented with 10% FCS, 50 U/ml of penicillin, 50 μg/ml of streptomycin, 250 μg/ml of hygromycin and 500 μg/ml of geniticin), were sown at 2000 cells/25 μl in 384 well, μCLEAR/black cell culture plates from Greiner (#781092) and incubated at 37° C. for 24 h. The sowing medium consisted of Opti-MEM (supplemented with 1% FCS, 50 U/ml of penicillin and 50 μg/ml of streptomycin). The cells were pre-incubated for 10 min with 10 μl of the test substances diluted in buffer, and 10 μl of agonist solution [human MCP-1 (PeproTech, #300-04) in Tyrode with 0.05% BSA) were then added. The human MCP-1 was employed at the concentration which corresponds to the EC50 which had been determined in a preliminary test (usually about 3 nM). After 90 min of incubation at 37° C., the solution was removed, and recruitment of β-arrestin to CCR2 was detected with the aid of the PathHunter detection reagent (93-001, DiscoveRx Corporation, Ltd.) according to the instructions of the manufacturer. Luminescence was measured after an incubation time of 60 min using a proprietary luminescence imaging measuring instrument. The molar concentration of the test substance which caused 50% inhibition of the MCP-1 effect (IC50) was determined using a 4-parameter logistic function (Hill function).

human CCR2 = biological target: T2, human CCR2 (Homo sapiens, UniProt P41597); experiment: Functional Ca2+ release test (B-1); assay type: cell-based; details: Chem-1 cell line transfected with human CCR2; 50% inhibition of the MCP-1 effect, MCP-1 at EC50 (about 5 nM); in some cases means of several determinations
T2 construct: host or cells: Chem-1 cell line
T2 sequence (P41597 1-360 isoform P41597-2): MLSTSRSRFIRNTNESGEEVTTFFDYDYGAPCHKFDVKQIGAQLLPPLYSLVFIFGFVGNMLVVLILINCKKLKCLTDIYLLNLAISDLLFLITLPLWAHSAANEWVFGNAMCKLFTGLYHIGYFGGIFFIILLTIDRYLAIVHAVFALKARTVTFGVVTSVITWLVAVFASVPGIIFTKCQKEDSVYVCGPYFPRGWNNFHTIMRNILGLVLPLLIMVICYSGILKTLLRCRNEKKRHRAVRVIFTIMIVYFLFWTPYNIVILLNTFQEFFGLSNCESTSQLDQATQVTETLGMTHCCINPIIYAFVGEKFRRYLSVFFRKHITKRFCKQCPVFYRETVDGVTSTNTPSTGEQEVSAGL
How it was run: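 Chem-1 cells expressing human CCR2, loaded with Fluo-4 for 60 min at 37° C, were preincubated 10 min with compound (10-point, 1:3.16 dilutions), then stimulated with MCP-1 at its predetermined EC50 (about 5 nM). Ca2+ release was monitored for 120 s. IC50 came from a 4-parameter Hill fit.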

T1 sequence (P51683 whole entry): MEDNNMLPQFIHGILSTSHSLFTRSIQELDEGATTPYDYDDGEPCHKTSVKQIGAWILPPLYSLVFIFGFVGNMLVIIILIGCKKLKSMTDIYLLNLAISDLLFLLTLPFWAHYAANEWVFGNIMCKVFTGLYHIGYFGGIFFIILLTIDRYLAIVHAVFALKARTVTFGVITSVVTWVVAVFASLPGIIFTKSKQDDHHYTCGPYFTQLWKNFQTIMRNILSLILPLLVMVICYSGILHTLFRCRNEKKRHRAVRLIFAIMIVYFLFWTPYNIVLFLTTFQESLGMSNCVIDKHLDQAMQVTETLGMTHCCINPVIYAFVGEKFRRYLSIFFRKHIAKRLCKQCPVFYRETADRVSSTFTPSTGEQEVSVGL

SMILES	IC50 (murine CCR2) [nM]	IC50 (human CCR2) [nM]
O=c1[nH]c(-c2noc(C3CC3)n2)nc(C(F)(F)F)c1Oc1ccc(Cl)c(Cl)c1 [Example 82, 2-(5-cyclopropyl-1,2,4-oxadiazol-3-yl)-5-(3,4-dichlorophenoxy)-6-(trifluoromethyl)pyrimidin-4(3H)-one x N,N-diisopropylethylamine]	150	19
O=c1[nH]c(-c2ncccc2F)nc(C(F)(F)F)c1Cc1ccc(Cl)c(C(F)(F)F)c1 [Example 34, 5-[4-chloro-3-(trifluoromethyl)benzyl]-2-(3-fluoropyridin-2-yl)-6-(trifluoromethyl)pyrimidin4(3H)-one]	110	2.7
Nc1ncnn1-c1nc(C(F)(F)F)c(Oc2ccc(Cl)c(Cl)c2)c(=O)[nH]1 [Example 48, 2-(5-Amino-1H-1,2,4-triazol-1-yl)-5-(3,4-dichlorophenoxy)-6-(trifluoromethyl)pyrimidin-4(3H)-one]	30000	4.2
Cn1cnc(Nc2nc(C(F)(F)F)c(Oc3ccc(Cl)c(Cl)c3)c(=O)[nH]2)n1 [Example 106, 5-(3,4-dichlorophenoxy)-2-[(1-methyl-1H-1,2,4-triazol-3-yl)amino]-6-(trifluoromethyl)pyrimidin-4(3H)-one]	1400	180
COc1cccnc1Nc1nc(C(F)(F)F)c(Oc2ccc(Cl)c(Cl)c2)c(=O)[nH]1 [Example 102, 5-(3,4-dichlorophenoxy)-2-[(3-methoxypyridin-2-yl)amino]-6-(trifluoromethyl)pyrimidin-4(3H)-one]	260	150
CC(C)c1nc(-c2nc(C(F)(F)F)c(Oc3ccc(Cl)c(Cl)c3)c(=O)[nH]2)no1 [Example 80, 5-(3,4-Dichlorophenoxy)-2-[5-(propan-2-yl)-1,2,4-oxadiazol-3-yl]-6-(trifluoromethyl)pyrimidin-4(3H)-one x N,N-diisopropylethylamine]	160	32
COc1ccc2nc(-c3nc(C(F)(F)F)c(Oc4ccc(Cl)c(Cl)c4)c(=O)[nH]3)ccc2c1 [Example 177, 5-(3,4-dichlorophenoxy)-2-(6-methoxyquinolin-2-yl)-6-(trifluoromethyl)pyrimidin-4(3H)-one]	1500	51
O=c1[nH]c(-c2nc(C(F)(F)F)c(Oc3ccc(Cl)c(Cl)c3)c(=O)[nH]2)ns1 [Example 86, 5-(3,4-Dichlorophenoxy)-2-(5-oxo-4,5-dihydro-1,2,4-thiadiazol-3-yl)-6-(trifluoromethyl)pyrimidin-4(3H)-one]	100	7.7
O=c1[nH]c(-c2ncccc2Cl)nc(C(F)(F)F)c1Oc1cccc(Cl)c1 [Example 12, 5-(3-chlorophenoxy)-2-(3-chloropyridin-2-yl)-6-(trifluoromethyl)pyrimidin-4(3H)-one]	100	75
Nc1nc[nH]c1-c1nc(C(F)(F)F)c(Oc2ccc(Cl)c(C(F)(F)F)c2)c(=O)[nH]1 [Example 69, 2-(4-amino-1H-imidazol-5-yl)-5-[4-chloro-3-(trifluoromethyl)phenoxy]-6-(trifluoromethyl)pyrimidin-4(3H)-one]	1100	130
O=c1[nH]c(Nc2cn[nH]c2)nc(C(F)(F)F)c1Oc1ccc(Cl)c(C(F)(F)F)c1 [Example 104, 5-[4-Chloro-3-(trifluoromethyl)phenoxy]-2-(1H-pyrazol-4-ylamino)-6-(trifluoromethyl)pyrimidin-4(3H)-one]	160	9.4
O=c1[nH]c(-c2cn[nH]c2)nc(C(F)(F)F)c1Oc1ccc(Cl)c(Cl)c1 [Example 66, 5-(3,4-dichlorophenoxy)-2-(1H-pyrazol-4-yl)-6-(trifluoromethyl)pyrimidin-4(3H)-one]	110	4.4
Cn1ncc(-c2nc(C(F)(F)F)c(Oc3ccc(Cl)c(C(F)(F)F)c3)c(=O)[nH]2)c1N [Example 67, 2-(5-amino-1-methyl-1H-pyrazol-4-yl)-5-[4-chloro-3-(trifluoromethyl)phenoxy]-6-(trifluoromethyl)pyrimidin-4(3H)-one]	150	8.3
O=c1[nH]c(-c2cccc(O)n2)nc(C(F)(F)F)c1Oc1ccc(Cl)c(C(F)(F)F)c1 [Example 30, 5-[4-chloro-3-(trifluoromethyl)phenoxy]-2-(6-hydroxypyridin-2-yl)-6-(trifluoromethyl)pyrimidin-4(3H)-one]	530	140

The remaining lines, values ahead:

IC50 (murine CCR2) [nM]	IC50 (human CCR2) [nM]	SMILES
400	7	O=c1[nH]c(-c2ccc(Cl)cn2)nc(C(F)(F)F)c1Cc1ccc(Cl)c(Cl)c1 [Example 22, 2-(5-chloropyridin-2-yl)-5-(3,4-dichlorobenzyl)-6-(trifluoromethyl)pyrimidin-4(3H)-one]
370	11	O=c1[nH]nc(Cc2nc(C(F)(F)F)c(Cc3ccc(Cl)c(Cl)c3)c(=O)[nH]2)o1 [Example 89, 5-(3,4-Dichlorobenzyl)-2-[(5-oxo-4,5-dihydro-1,3,4-oxadiazol-2-yl)methyl]-6-(trifluoromethyl)pyrimidin-4(3H)-one]
2600	92	COc1cc(-c2nc(C(F)(F)F)c(Cc3ccc(Cl)c(Cl)c3)c(=O)[nH]2)ccn1 [Example 29, 5-(3,4-dichlorobenzyl)-2-(2-methoxypyridin-4-yl)-6-(trifluoromethyl)pyrimidin-4(3H)-one]
420	90	O=c1[nH]c(Cc2ccccn2)nc(C(F)(F)F)c1Cc1ccc(Cl)c(Cl)c1 [Example 94, 5-(3,4-dichlorobenzyl)-2-(pyridin-2-ylmethyl)-6-(trifluoromethyl)pyrimidin-4(3H)-one]
190	3.2	COc1cnccc1-c1nc(C(F)(F)F)c(Cc2ccc(Cl)c(Cl)c2)c(=O)[nH]1 [Example 26]
1400	360	O=c1[nH]c(N2CCCC2)nc(C(F)(F)F)c1Cc1ccc(Cl)c(Cl)c1 [Example 175, 5-(3,4-dichlorobenzyl)-2-(pyrrolidin-1-yl)-6-(trifluoromethyl)pyrimidin-4(3H)-one]
790	33	Cc1cccc(-c2nc(C(F)(F)F)c(Cc3ccc(Cl)c(Cl)c3)c(=O)[nH]2)n1 [Example 25, 5-(3,4-dichlorobenzyl)-2-(6-methylpyridin-2-yl)-6-(trifluoromethyl)pyrimidin-4(3H)-one]
140	62	O=c1[nH]c(Cc2cccs2)nc(C(F)(F)F)c1Cc1ccc(Cl)c(Cl)c1 [Example 172]
480	35	O=c1[nH]c(-c2cccnc2)nc(C(F)(F)F)c1Cc1ccc(Cl)c(Cl)c1 [Example 27, 5-(3,4-dichlorobenzyl)-2-(pyridin-3-yl)-6-(trifluoromethyl)pyrimidin-4(3H)-one]
630	360	O=c1[nH]c(CN2CCOCC2)nc(C(F)(F)F)c1Cc1ccc(Cl)c(Cl)c1 [Example 261, 5-(3,4-Dichlorobenzyl)-2-(morpholin-4-ylmethyl)-6-(trifluoromethyl)pyrimidin-4(3H)-one]
460	120	O=c1[nH]c(Cc2cccnc2)nc(C(F)(F)F)c1Cc1ccc(Cl)c(Cl)c1 [Example 98, 5-(3,4-dichlorobenzyl)-2-(pyridin-3-ylmethyl)-6-(trifluoromethyl)pyrimidin-4(3H)-one]
100	5.5	O=c1[nH]c(-c2cn[nH]c2)nc(C(F)(F)F)c1Cc1ccc(Cl)c(Cl)c1 [Example 63, 5-(3,4-dichlorobenzyl)-2-(1H-pyrazol-4-yl)-6-(trifluoromethyl)pyrimidin-4(3H)-one]
